Assay results as given in patent publication US10150757B2, “Quinazolinone derivatives as PARP inhibitors” (Janssen Pharmaceutica NV, priority 2004, dated 2018).

Legend:
PARP-1 enzyme [1] = molecular target: T1, PARP-1 enzyme (Homo sapiens, UniProt P09874); assay: In vitro scintillation proximity assay (SPA) for PARP-1 inhibitory activity; assay type: biochemical; details: [3H]-NAD+, biotinylated histones, nicked DNA; read-out: in vitro SPA assay PARP-1 pIC50 (converted)
Method: In Vitro Scintillation Proximity Assay (SPA) for PARP-1 Inhibitory Activity
Compounds of the present invention were tested in an in vitro assay based on SPA technology (proprietary to Amersham Pharmacia Biotech).
In principle, the assay relies upon the well established SPA technology for the detection of poly(ADP-ribosyl)ation of biotinylated target proteins, i.e histones. This ribosylation is induced using nicked DNA activated PARP-1 enzyme and [^3H]-nicotinamide adenine dinucleotide ([^3H]-NAD^+) as ADP-ribosyl donor.
As inducer of PARP-1 enzyme activity, nicked DNA was prepared. For this, 25 mg of DNA (supplier: Sigma) was dissolved in 25 ml DNAse buffer (10 mM Tris-HCl, pH 7.4; 0.5 mg/ml Bovine Serum Albumine (BSA); 5 mM MgCl2.6H2O and 1 mM KCl) to which 50 μl DNAse solution (1 mg/ml in 0.15M NaCl) was added. After an incubation of 90 min. at 37° C., the reaction was terminated by adding 1.45 g NaCl, followed by a further incubation at 58° C. for 15 min. The reaction mixture was cooled on ice and dialysed at 4° C. for respectively 1.5 and 2 hours against 1.5 l of 0.2M KCl, and twice against 1.5 l of 0.01M KCl for 1.5 and 2 h respectively. The mixture was aliquoted and stored at −20° C. Histones (1 mg/ml, type II-A, supplier: Sigma) were biotinylated using the biotinylation kit of Amersham and stored aliquoted at −20° C. A stock solution of 100 mg/ml SPA poly(vinyl toluene) (PVT) beads (supplier: Amersham) was made in PBS. A stock solution of [^3H]-NAD^+ was made by adding 120 μl of [^3H]-NAD^+ (0.1 mCi/ml, supplier: NEN) to 6 ml incubation buffer (50 mM Tris/HCl, pH 8; 0.2 mM DTT; 4 mM MgCl2). A solution of 4 mM NAD^+ (supplier: Roche) was made in incubation buffer (from a 100 mM stock solution in water stored at −20° C.). The PARP-1 enzyme was produced using art known techniques, i.e. cloning and expression of the protein starting from human liver cDNA. Information concerning the used protein sequence of the PARP-1 enzyme including literature references can be found in the Swiss-Prot database under primary accession number P09874. Biotinylated histones and PVT-SPA beads were mixed and pre-incubated for 30 min. at room temperature. PARP-1 enzyme (concentration was lot dependent) was mixed with the nicked DNA and the mixture was pre-incubated for 30 min. at 4° C. Equal parts of this histones/PVT-SPA beads solution and PARP-1 enzyme/DNA solution were mixed and 75 μl of this mixture together with 1 μl of compound in DMSO and 25 μl of [^3H]-NAD^+ was added per well into a 96-well microtiterplate. The final concentrations in the incubation mixture were 2 μg/ml for the biotinylated histones, 2 mg/ml for the PVT-SPA beads, 2 μg/ml for the nicked DNA and between 5-10 μg/ml for the PARP-1 enzyme. After incubation of the mixture for 15 min. at room temperature, the reaction was terminated by adding 100 μl of 4 mM NAD^+ in incubation buffer (final concentration 2 mM) and plates were mixed.
The beads were allowed to sediment for at least 15 min. and plates transferred to a TopCountNXT™ (Packard) for scintillation counting, values were expressed as counts per minute (cpm). For each experiment, controls (containing PARP-1 enzyme and DMSO without compound), a blank incubation (containing DMSO but no PARP-1 enzyme or compound) and samples (containing PARP-1 enzyme and compound dissolved in DMSO) were run in parallel. All compounds tested were dissolved and eventually further diluted in DMSO. In first instance, compounds were tested at a concentration of 10^−5M. […] In each test, the blank value was subtracted from both the control and the sample values. The control sample represented maximal PARP-1 enzyme activity. For each sample, the amount of cpm was expressed as a percentage of the mean cpm value of the controls. […] Herein the effects of test compounds are expressed as pIC50 (the negative log value of the IC50-value).

PARP-1 enzyme [2] = molecular target: T1, PARP-1 enzyme; assay: In vitro filtration assay for PARP-1 inhibitory activity; assay type: biochemical; details: [32P]-NAD, histones, nicked DNA; read-out: in vitro filter assay PARP-1 pIC50 (converted)
Method: In Vitro Filtration Assay for PARP-1 Inhibitory Activity
Compounds of the present invention were tested in an in vitro filtration assay assessing PARP-1 activity (triggered in the presence of nicked DNA) by means of its histone poly (ADP-ribosyl)ation activity using [^32P]-NAD as ADP-ribosyl donor. The radioactive ribosylated histones were precipitated by trichloroacetic acid (TCA) in 96-well filterplates and the incorporated [^32P] measured using a scintillation counter
A mixture of histones (stock solution: 5 mg/ml in H2O), NAD^+ (stock solution: 100 mM in H2O), and [^32P]-NAD^+ in incubation buffer (50 mM Tris/HCl, pH 8; 0.2 mM DTT; 4 mM MgCl2) was made. A mixture of the PARP-1 enzyme (5-10 μg/ml) and nicked DNA was also made. The nicked DNA was prepared as described in the in vitro SPA for PARP-1 inhibitory activity. Seventy-five μl of the PARP-1 enzyme/DNA mixture together with 1 μl of compound in DMSO and 25 μl of histones-NAD^+/[^32P]-NAD^+ mixture was added per well of a 96-well filterplate (0.45 μm, supplier Millipore). The final concentrations in the incubation mixture were 2 μg/ml for the histones, 0.1 mM for the NAD^+, […] (0.5 μC) for the [^32P]-NAD^+ and 2 μg/ml for the nicked DNA. Plates were incubated for 15 min. at room temperature and the reaction was terminated by the addition of 10 μl ice cold 100% TCA followed by the addition of 10 μl ice-cold BSA solution (1% in H2O). The protein fraction was allowed to precipitate for 10 min. at 4° C. and plates were vacuum filtered. The plates were subsequently washed with, for each well, 1 ml of 10% ice cold TCA, 1 ml of 5% ice cold TCA and 1 ml of 5% TCA at room temperature. Finally 100 μl of scintillation solution (Microscint 40, Packard) was added to each well and the plates were transferred to a TopCountNXT™ (supplier: Packard) for scintillation counting and values were expressed as counts per minute (cpm). For each experiment, controls (containing PARP-1 enzyme and DMSO without compound), a blank incubation (containing DMSO but no PARP-1 enzyme or compound) and samples (containing PARP-1 enzyme and compound dissolved in DMSO) were run in parallel. All compounds tested were dissolved and eventually further diluted in DMSO. In first instance, compounds were tested at a concentration of 10^−5M. […] In each test, the blank value was subtracted from both the control and the sample values. The control sample represented maximal PARP-1 enzyme activity. For each sample, the amount of cpm was expressed as a percentage of the mean cpm value of the controls. […] Herein the effects of test compounds are expressed as pIC50 (the negative log value of the IC50-value).

T1 sequence (P09874 whole entry): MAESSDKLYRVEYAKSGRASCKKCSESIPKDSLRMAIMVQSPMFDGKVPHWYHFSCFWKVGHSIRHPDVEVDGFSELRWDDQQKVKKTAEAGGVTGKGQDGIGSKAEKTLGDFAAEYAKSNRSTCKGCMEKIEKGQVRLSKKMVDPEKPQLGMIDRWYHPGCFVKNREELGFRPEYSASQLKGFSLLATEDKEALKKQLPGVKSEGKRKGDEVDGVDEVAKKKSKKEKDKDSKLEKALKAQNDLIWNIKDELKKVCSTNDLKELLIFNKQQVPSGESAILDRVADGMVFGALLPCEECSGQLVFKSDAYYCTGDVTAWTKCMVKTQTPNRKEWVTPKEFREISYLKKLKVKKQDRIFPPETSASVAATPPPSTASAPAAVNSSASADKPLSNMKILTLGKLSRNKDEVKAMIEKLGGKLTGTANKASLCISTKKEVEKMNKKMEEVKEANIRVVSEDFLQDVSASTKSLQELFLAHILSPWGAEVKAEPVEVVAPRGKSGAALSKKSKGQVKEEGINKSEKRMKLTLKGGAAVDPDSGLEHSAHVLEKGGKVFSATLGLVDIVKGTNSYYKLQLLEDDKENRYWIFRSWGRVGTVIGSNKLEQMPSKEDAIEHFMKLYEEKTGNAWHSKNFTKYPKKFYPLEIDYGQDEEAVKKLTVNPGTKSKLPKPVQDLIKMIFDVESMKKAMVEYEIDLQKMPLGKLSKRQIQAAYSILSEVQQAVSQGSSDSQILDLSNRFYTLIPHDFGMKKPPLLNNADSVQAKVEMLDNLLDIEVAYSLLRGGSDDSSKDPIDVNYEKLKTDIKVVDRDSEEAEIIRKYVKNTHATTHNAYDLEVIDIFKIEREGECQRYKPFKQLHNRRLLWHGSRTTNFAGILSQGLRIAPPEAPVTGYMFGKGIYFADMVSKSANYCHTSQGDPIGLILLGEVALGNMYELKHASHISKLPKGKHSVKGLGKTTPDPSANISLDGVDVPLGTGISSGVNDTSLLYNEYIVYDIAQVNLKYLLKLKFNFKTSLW

SMILES | IC50 (PARP-1 enzyme [1]) | IC50 (PARP-1 enzyme [2])
O=c1[nH]c(NCCN2CCN(c3n[nH]c4ccccc34)CC2)nc2ccc(Cl)cc12 [Compound 1] | 7.76 nM | –
O=c1[nH]c(NCCCN2CCC(O)(c3ccc(Cl)cc3)CC2)nc2ccccc12 [Compound 2] | 133 nM | 973 nM
CCc1cc2cc(CN3CCN(CCNc4nc5ccccc5c(=O)[nH]4)CC3)ccc2nc1OC [Compound 3] | 535 nM | –
CC1(C)Cc2c(N)c(Cl)cc(C(=O)NC3CCN(CCCNc4nc(O)c5ccccc5n4)CC3)c2O1 [Compound 4] | 718 nM | 3650 nM
CC1(C)Cc2c(N)c(Cl)cc(C(=O)NC3CCN(CCCCNc4nc(O)c5ccccc5n4)CC3)c2O1 [Compound 5] | 638 nM | 2640 nM
CO[C@@H]1CN(CCCNc2nc(O)c3ccccc3n2)CC[C@@H]1NC(=O)c1cc(Cl)c(N)c2c1OCCC2 [Compound 6] | 387 nM | 2740 nM
Nc1c(Cl)cc(C(=O)OCC2CCN(CCNc3nc4ccccc4c(=O)[nH]3)CC2)c2c1OCCO2 [Compound 7] | 592 nM | 3440 nM
CO[C@@H]1CN(CCCNc2nc(O)c3ccccc3n2)CCN1NC(=O)c1cc(Cl)c(N)c2c1OC(C)(C)C2 [Compound 8] | 535 nM | 2110 nM
CO[C@H]1CN(CCCNc2nc3ccccc3c(=O)[nH]2)CC[C@H]1NC(=O)c1cc(Cl)cc2c1OC(C)(C)C2 [Compound 18] | 847 nM | 4520 nM
O=c1[nH]c(NCCCN2CCC(c3c[nH]c4ccccc34)CC2)nc2ccccc12 [Compound 20] | 675 nM | 5300 nM
O=c1[nH]c(NCCN2CCC(c3n[nH]c4cc(F)ccc34)CC2)nc2ccccc12 [Compound 21] | 25.5 nM | 520 nM
O=c1[nH]c(NCCCN2CCN(c3n[nH]c4ccccc34)CC2)nc2ccccc12 [Compound 22] | 46.3 nM | 467 nM
O=C(NC1CCN(CCCNc2nc3ccccc3c(=O)[nH]2)CC1)c1ccccc1 [Compound 23] | 687 nM | 2540 nM
O=c1[nH]c(NCCCN2CCN(c3nsc4ccccc34)CC2)nc2ccccc12 [Compound 24] | 785 nM | 4950 nM
O=c1[nH]c(NCCCN2CCC(c3n[nH]c4cc(F)ccc34)CC2)nc2ccccc12 [Compound 25] | 190 nM | 2320 nM
O=c1[nH]c(NCCCN2CCC(c3noc4cc(F)ccc34)CC2)nc2ccccc12 [Compound 26] | 425 nM | 1630 nM
O=c1[nH]c(NCCCN2CCN(c3n[nH]c4cc(F)ccc34)CC2)nc2ccccc12 [Compound 27] | 44.4 nM | 424 nM

SMILES | IC50 (PARP-1 enzyme [1]) | IC50 (PARP-1 enzyme [2])
CCCCn1cc(C2CCN(CCCNc3nc4ccccc4c(=O)[nH]3)CC2)c2ccccc21 [Compound 28] | 1490 nM | 2820 nM
O=c1[nH]c(NCCCN2CCC(n3c(=O)[nH]c4ccccc43)CC2)nc2ccccc12 [Compound 29] | 785 nM | 4650 nM
O=c1[nH]c(NCCN2CCC(Nc3nc4ccccc4c(=O)[nH]3)CC2)nc2ccccc12 [Compound 30] | 32.3 nM | –
O=c1[nH]c(NCCN2CCC(c3n[nH]c4cc(F)ccc34)CC2)nc2cc(Cl)ccc12 [Compound 31] | 39.4 nM | –
O=c1[nH]c(NCCN2CCC(Nc3n[nH]c(=O)c4ccccc34)CC2)nc2ccccc12 [Compound 33] | 34.8 nM | –
O=c1[nH]c(NCCN2CCC(c3n[nH]c4cc(F)ccc34)CC2)nc2ccc(Cl)cc12 [Compound 36] | 10.8 nM | –
Cc1ccc2nc(NCCN3CCC(c4n[nH]c5cc(F)ccc45)CC3)[nH]c(=O)c2c1 [Compound 37] | 15.3 nM | –
O=c1[nH]c(NCCN2CCN(c3nc4ccccc4c(=O)[nH]3)CC2)nc2ccccc12 [Compound 38] | 424 nM | –
Cc1cccc2nc(NCCN3CCN(c4n[nH]c5ccccc45)CC3)[nH]c(=O)c12 [Compound 39] | 9.93 nM | –
O=c1nc(NCCCN2CCC(Nc3nccc4ccccc34)CC2)[nH]c2ccccc12 [Compound 40] | 322 nM | 2240 nM
O=c1[nH]c(NCCN2CCN(c3n[nH]c4cc(F)ccc34)CC2)nc2ccccc12 [Compound 41] | 44.5 nM | 546 nM
O=c1[nH]c(NCCCN2CCC(Nc3cccc4ccccc34)CC2)nc2ccccc12 [Compound 42] | 841 nM | 8950 nM
Cc1ccc2nc(NCCN3CCN(c4n[nH]c5ccccc45)CC3)[nH]c(=O)c2c1 [Compound 43] | 12.4 nM | –
O=c1[nH]c(NCCN2CCN(c3n[nH]c4ccccc34)CC2)nc2cc(Cl)ccc12 [Compound 44] | 29.3 nM | –
Nc1c(Cl)cc(C(=O)NC2CCN(CCCNc3nc(O)c4ccccc4n3)CC2)c2c1CCO2 [Compound 45] | 225 nM | 3050 nM
O=C(c1ccc(F)cc1)C1CCN(CCNc2nc3ccccc3c(=O)[nH]2)CC1 [Compound 46] | 231 nM | 1870 nM
